The term IC50 denotes the concentration that inhibits the measured activity by half. As usually defined, the IC90 is the concentration needed for an effect of 90%. Higher therefore signals weaker potency.

Our source for the IC50 and IC90 values is PubChem BioAssay AID434987 (Southern Research Specialized Biocontainment Screening …, 2010).

The test system of the assay is M. tuberculosis H37Rv growth inhibition with meropenem. In words: dose response, H37Rv, with and without meropenem (AID 434987).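 Further: growth over 7 days at 37 °C before Alamar Blue read on day 9.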
[1] abbreviates: M. tuberculosis H37Rv growth inhibition, measured here: IC50 without meropenem.
The mark [2] stands for this setting: M. tuberculosis H37Rv growth inhibition, measured here: IC90 without meropenem.
The mark [3] stands for this setting: measured here: IC90 with meropenem.

Calls of active or inactive are those of the source. How the calls were made is not given here. Where only a bound is given, the exact number is not on record here.

Take `COc1cc(NC(=O)c2ccc(CNc3c(N4CCCC4)c(=O)c3=O)cc2)cc(OC)c1OC`: the IC50 was 23.9 µM. In addition, the IC50 under setting [1] was above 100 µM. The molecule further registered an IC90 under setting [2] above 100 µM. Moreover, the IC90 under setting [3] was above 100 µM.

Take `O=C1N=C(N2CCCC2)S/C1=C\c1cccc(Br)c1`: the IC50 is 30.9 µM (inactive). Moreover, under setting [1], the IC50 stood at 55 µM. In addition, the IC90 under setting [2] is above 100 µM. The molecule also returned an IC90 under setting [3] above 100 µM.

Consider `CC(=O)Nc1ccc(C(=O)N(C2=NC(C)CS2)c2ccc(Cl)cc2)cc1` (stereo not drawn), for which the IC50 is 29.8 µM (inactive). Under setting [1], this molecule showed an IC50 of 44.1 µM. This molecule also yielded an IC90 under setting [2] above 100 µM. Moreover, the IC90 under setting [3] was above 100 µM.

As to `c1ccc(-c2cc3ccccc3[nH]2)cc1`, the IC50 is > 100 µM (inactive). Under setting [1], the IC50 is above 100 µM. The molecule further displayed an IC90 under setting [2] above 100 µM. In addition, the IC90 under setting [3] is above 100 µM.

`CSc1ncccc1C(=O)Nc1nc2ccc(Oc3ccccc3)cc2s1`: the IC50 is > 100 µM (inactive). Under setting [1], this molecule yielded an IC50 above 100 µM. For the same molecule, the concentration for an effect of 90% (IC90) under setting [2] is above 100 µM. The IC90 under setting [3] was above 100 µM.

As to `O=C(CCl)N(c1ccccc1)C1CCS(=O)(=O)C1` (stereo not drawn), the IC50 was 5.77 µM. For the same molecule, the IC50 under setting [1] worked out at 18.2 µM. The molecule also yielded an IC90 under setting [2] of 55.6 µM. Also, the IC90 under setting [3] is 13.9 µM.

As to `OCCCc1cn(-c2ccccc2)c2ccccc12`, the IC50 was 12.4 µM. The molecule further showed an IC50 under setting [1] above 100 µM. Further, the IC90 under setting [2] was above 100 µM. Also, the IC90 under setting [3] was 60.8 µM.

For `CCOC(=O)c1cc(C(=O)OCC)cc(-n2cc(O)c(C(=O)OCC)n2)c1`, the IC50 is > 100 µM (inactive). This molecule had an IC50 under setting [1] above 100 µM. Besides, the IC90 under setting [2] was above 100 µM. In addition, under setting [3], the IC90 is above 100 µM.

On to `O=C(OCC(=O)c1ccc[nH]1)C1=COCCO1`, for which the IC50 was 18.3 µM. The molecule also showed an IC50 under setting [1] of 88.8 µM. The molecule further registered an IC90 under setting [2] above 100 µM. The same molecule displayed a concentration for an effect of 90% (IC90) under setting [3] above 100 µM.

As to `COC(=O)CNC(c1ccccc1Cl)c1cc(Br)ccc1NC(=O)CCN1CCOCC1` (stereo not drawn), the IC50 was 19.8 µM. The same molecule came in with an IC50 under setting [1] of 49.1 µM. The same molecule displayed an IC90 under setting [2] of 53.7 µM. Further, the IC90 under setting [3] came to 34.3 µM.

As for `CCOC(=O)Cn1nc(-c2ccc(C)cc2)c2ccccc2c1=O`, the IC50 was 17.5 µM. The molecule also had an IC50 under setting [1] above 100 µM. For the same molecule, the IC90 under setting [2] is above 100 µM. Moreover, under setting [3], the IC90 was above 50 µM.

In the case of `Cc1ccccc1C(=O)Oc1ccccc1N1C(=O)C2CC=CCC2C1=O` (stereo not drawn), the IC50 was > 100 µM (inactive). The molecule further showed an IC50 under setting [1] above 100 µM. The molecule also gave an IC90 under setting [2] above 100 µM. Under setting [3], this molecule yielded an IC90 above 100 µM.

`Cc1cccc2c(C(=O)n3cccn3)cc(-c3ccccc3Cl)nc12`: the IC50 was 7.95 µM. The molecule further yielded an IC50 under setting [1] of 52.7 µM. Moreover, the IC90 under setting [2] is above 100 µM. Under setting [3], this molecule had an IC90 of 26.8 µM.

Consider `CCOC(=O)c1c(C)[nH]c(N=Nc2ccccc2Cl)c1C`, for which the IC50 was 32.4 µM (inactive). Also, the IC50 under setting [1] stood at 63.1 µM. The molecule further displayed an IC90 under setting [2] above 100 µM. Moreover, under setting [3], the IC90 was above 100 µM.

On to `COC(=O)CN1C(CN2CCOCC2)=Nc2ccc(Br)cc2C1c1ccccc1` (stereo not drawn), for which the IC50 was > 100 µM (inactive). Under setting [1], this molecule yielded an IC50 above 100 µM. This molecule registered an IC90 under setting [2] above 100 µM. Also, the IC90 under setting [3] is above 100 µM.

Take `COc1cccc(/C=N/Nc2nc(N3CCCC3)nc(N3CCCC3)n2)c1O`: the IC50 was 8.14 µM. This molecule showed an IC50 under setting [1] of 25.1 µM. Under setting [2], this molecule came in with an IC90 of 63.7 µM. The molecule further gave an IC90 under setting [3] of 36.1 µM.

As to `O=C(Nc1ccc(Cl)cc1Cl)C1=Cc2ccccc2OC1`, the IC50 is > 100 µM (inactive). In addition, the IC50 under setting [1] is above 100 µM. Under setting [2], the IC90 was above 100 µM. Further, the IC90 under setting [3] was above 100 µM.

On to `CCc1ccc(N2C(=O)c3sc4nnc(-c5ccccc5)c(=O)n4c3C2=O)cc1`, for which the IC50 was > 100 µM (inactive). The same molecule showed an IC50 under setting [1] above 100 µM. The same molecule had an IC90 under setting [2] above 100 µM. This molecule had an IC90 under setting [3] above 100 µM.

With `CC(C)Oc1ccc(N2CC(C(=O)Nc3ccccc3F)CC2=O)cc1` (stereo not drawn), the IC50 is 56.8 µM (inactive). Further, the IC50 under setting [1] was above 100 µM. For the same molecule, the IC90 under setting [2] was above 100 µM. This molecule showed an IC90 under setting [3] above 100 µM.

Take `O=C(CN1CCN(S(=O)(=O)c2ccc(F)cc2)CC1)Nc1ccc2c(c1)OCCO2`: the IC50 is 19.1 µM. The same molecule gave an IC50 under setting [1] of 88.2 µM. In addition, the IC90 under setting [2] is above 100 µM. Further, the IC90 under setting [3] was above 100 µM.

Turning to `CN(C)c1ccc(/C=N/NC(N)=S)cc1[N+](=O)[O-]`, the IC50 is 19.9 µM. The molecule further displayed a half-inhibitory concentration (IC50) under setting [1] above 100 µM. The molecule further showed an IC90 under setting [2] above 100 µM. This molecule yielded an IC90 under setting [3] above 50 µM.

Turning to `Cc1ccc(NC(=O)CCS(=O)(=O)c2cccc3nonc23)cc1`, the IC50 was 16.8 µM (inactive). Further, the IC50 under setting [1] turned out to be 31.1 µM. The molecule further came in with an IC90 under setting [2] above 100 µM. This molecule also returned an IC90 under setting [3] above 100 µM.
